Assay results taken from patent publication US8357676B2, “Ansamycin formulations and methods of use thereof” (Infinity Discovery, Inc., priority 2006, dated 2013).
In brackets after ≈: the same amount, converted by molar mass. Like-named read-outs stand apart in the source and are kept apart here.

Columns and labels:
[1] = Equilibrium solubility in SIF; format: physicochemical; details: for solubility: 37 °C; for Crystalline 17-AG Equilibrium Solubility: average values
Method: Solutions were placed at 37° C., and sample aliquots were removed at 24, 48, 72, & 96 hours. Sample aliquots were filtered (0.45 uM PVDF), diluted in SIF/MeOH and measured in triplicate on UV spectrometer.

[2] = In vitro dissolution of amorphous solid dispersions in simulated intestinal fluid at 37° C.; format: physicochemical
Method: […] To each vial was added simulated intestinal fluid (5 mL) and each was shaken at 37° C. […] The samples were then diluted in MeOH and tested using UV method for solution concentration.

[3] = In vivo exposure of various oral formulations of 17-AG, single oral dose; details: female beagle dogs
Method: The oral bioavailability of various formulations of the compound 17-AG was investigated by making various oral formulations, dosing beagle dogs and measuring 17-AG levels in blood plasma at various time points following a single oral dose. In addition, the effect of PVP on enhancing exposure was investigated by its addition to many of the tested formulations.
In brief, different crystalline, solvated, and amorphous forms of 17-AG were dosed either as filled capsules or as suspensions. In addition, various 17-AG solutions utilizing a range of different organic, anionic, & non-ionic components were dosed by oral gavage.
The crystalline, solvated, and amorphous forms of 17-AG were made as previously described and blended with either anhydrous lactose or PVP in a Turbula blender for 15 minutes. […]
The nanosuspension was made by levigating crystalline 17-AG by high shear in a microfluidizer (Microfluidics Corp, Model: M-110L) for 10-20 minutes in Tween-80. Mean particle size (d50: […]) was measured by laser light diffraction (Malvern Corp, Mastersizer 2000).
Blood was collected pre-dose, 15, 30 minutes, 1, 2, 4, and 8 hours post-dose into tubes containing sodium heparin. […] Isolated plasma was saved in labeled screw cap freezer vials or eppendorf tubes and stored frozen (−70° C.) until analyzed for plasma 17-AG levels. […]

[4] = Oral bioavailability of amorphous 17-AG/PVP dispersion vs crystalline 17-AG, single oral capsule dose; format: in vivo; details: 15 mg/kg, beagle dogs
Method: A 12% 17-AG/PVP (w/w) dispersion was made utilizing rotary evaporation and characterized for purity, residual solvent level, and amorphous content as described, filled into HPMC capsules and dosed into dogs at a level of 15 mg/kg. Blood was collected pre-dose, at 15 minutes, at 30 minutes, 1 hour, 2 hours, 4 hours, 6 hours, 12 hours, and 24 hours post dose into tubes containing sodium heparin. Collected blood samples were immediately placed on wet ice and refrigerated centrifuge for isolation of plasma within 30 min of collection. Isolated plasma was saved in labeled screw cap freezer vials or eppendorf tubes and stored frozen (−70° C.) until analyzed for plasma 17-AG levels. The design of the study is as follows. A single group of dogs consisting of 2 males & 2 females was utilized for dosing, with a week washout in between each dose.

[5] = system: H1650 lung adenocarcinoma cell line; assay: H1650 mouse xenograph tumor model; format: in vivo, Nu/Nu mice; details: 50, 75 and 100 mg/kg 17-AG in 15% PVP, 5% EtOH, 80% PG, oral gavage every day
Method: In the second study, H1650 lung adenocarcinoma cell line which contains a mutant form of EGFR (Del E746-A750) was utilized. 5-6 week old Nu/Nu mice were implanted with 10×10e6H1650 cells. Dosing commenced after implanted cells reached ˜100 mm3. Dosing was by oral gavage and the dosing schedule was every day with vehicle (15% PVP, 5% EtOH, 80% PG), and 50 mg/kg, 75 mg/kg, and 100 mg/kg 17-AG in vehicle.

[6] = Supersaturated levels of 17-AG in SIF pH 6.8 with PVP (DMSO stock diluted 1:100); format: physicochemical; details: for 17-AG Supersaturated Concentration: 37° C., average values
Method: Supersaturated levels of 17-AG was measured by adding 17-AG DMSO stock solutions (10, 50, 100, & 200 mg/ml) at a 1:100 dilution to SIF pH 6.8 solutions containing 0%, 0.5%, 1%, 2.5%, & 5% PVP (w/v). […] Solutions were stirred in a dissolution apparatus (Paddle speed 150 RPM, 37° C.), and aliquots of each solution were removed at 15, 30, 60, 120, 240, 360, & 1320 minute time points. Sample aliquots were filtered (0.45 uM PVDF), diluted in SIF/MeOH and measured in triplicate on UV spectrometer. Representative data are found in FIG. 25 and FIG. 26.

[7] = system: H1975, a non-small cell lung cancer cell line; assay: H1975 mouse xenograph tumor model; format: in vivo, Nu/Nu mice; details: 5% DMSO, 75% NS, oral gavage every other day
Method: In the first study, H1975, a non-small cell lung cancer cell line which contains L858R and T790M mutations in EGFR, a client protein for HSP90 was utilized. 5-6 week old Nu/Nu mice were implanted with 10×10e6H1975 cells. Dosing commenced after implanted cells reached ˜150 mm3. Dosing was by oral gavage and the dosing schedule was every other day with vehicle (20% PGHS, 5% DMSO, 75% NS), and 75 mg/kg, and 100 mg/kg 17-AG in vehicle.

[8] = simulated intestinal fluid (SIF), pH 6.8, fassgf or other biorelevant, thermodynamic from solid, read-out: Eq. Solubility of active
[9] = 12% load analog in PVP K-30 amorphous dispersion, target conc 2 mg/mL, SIF 37° C., t = 5 min
[10] = 12% load analog in PVP K-30 dispersion, SIF 37° C., t = 5 min

For `CO[C@H]1/C=C\C=C(/C)C(=O)NC2=CC(=O)C(NC(C)=O)=C(C[C@@H](C)C[C@H](OC)[C@H](O)[C@@H](C)/C=C(\C)[C@@H]1OC(N)=O)C2=O` [17-acetyl-AG, 17-acetylgeldanamycin], the solubility [1, 8] was 350 µg/mL (≈ 596 µM), the “Supersaturated concentration of analog/polymer dispersions in SIF at 37° C. (t = 5 min)” value [2, 9] was 1.568 mg/ml and the “Fold increase relative to equilibrium solubility” value [2, 10] was at least 5 x.
In the case of `CO[C@H]1C[C@H](C)CC2=C(N)C(=O)C=C(NC(=O)/C(C)=C/C=C\[C@H](OC)[C@@H](OC(N)=O)/C(C)=C/[C@H](C)C1OC(C)=O)C2=O` (stereo partly drawn) [11-acetyl-17-AG, 11-acetyl-17-aminogeldanamycin], the solubility [1, 8] is reported as 88 µg/mL (≈ 150 µM), the “Supersaturated concentration of analog/polymer dispersions in SIF at 37° C. (t = 5 min)” value [2, 9] is reported as 0.167 mg/ml and the “Fold increase relative to equilibrium solubility” value [2, 10] is reported as 2 x.
For `CO[C@H]1/C=C\C=C(/C)C(=O)NC2=CC(=O)C(NCC3CC3)=C(C[C@@H](C)C[C@H](OC)[C@H](O)[C@@H](C)/C=C(\C)[C@@H]1OC(N)=O)C2=O` [17-cyclopropylmethyl-AG, 17-cyclopropylmethylaminogeldanamycin], the solubility [1, 8] was 34 µg/mL (≈ 56.7 µM), the “Supersaturated concentration of analog/polymer dispersions in SIF at 37° C. (t = 5 min)” value [2, 9] was 0.0573 mg/ml and the “Fold increase relative to equilibrium solubility” value [2, 10] was 2 x.
For `CO[C@H]1/C=C\C=C(/C)C(=O)NC2=CC(=O)C(NCc3ccccc3)=C(C[C@@H](C)C[C@H](OC)[C@H](O)[C@@H](C)/C=C(\C)[C@@H]1OC(N)=O)C2=O` [17-benzyl-AG, 17-benzylaminogeldanamycin], the solubility [1, 8] was 15 µg/mL (≈ 23.6 µM), the “Supersaturated concentration of analog/polymer dispersions in SIF at 37° C. (t = 5 min)” value [2] was 0.165 mg/ml (10x) and the Supersaturated concentration in SIF at 5 min ([2]; 12% load analog in PVP K-30 dispersion, SIF 37° C., t = 5 min, the values are: supersaturated concentration in SIF at 5 min) was 0.165 mg/mL.
In the case of `CO[C@H]1/C=C\C=C(/C)C(=O)NC2=CC(=O)C(N)=C(C[C@@H](C)C[C@H](OC)[C@H](O)[C@@H](C)/C=C(\C)[C@@H]1OC(N)=O)C2=O` [EtOAc Solvate of 17-AG, 17-amino-geldanamycin], the “exposure after oral dosing (in words)” value [3] is reported as “low exposure”.
In the case of `CO[C@H]1/C=C\C=C(/C)C(=O)NC2=CC(=O)C(N)=C(C[C@@H](C)C[C@H](OC)[C@H](O)[C@@H](C)/C=C(\C)[C@@H]1OC(N)=O)C2=O` [Crystalline 17-AG, 17-amino-geldanamycin], the “Crystalline 17-AG Equilibrium Solubility” value ([1]; SIF pH 6.8, 0% PVP, 37° C.) is reported as 4.1 µg/mL, the “Crystalline 17-AG Equilibrium Solubility” value ([1]; SIF pH 6.8, 0.5% PVP, 37° C.) is reported as 5.9 µg/mL and the “Crystalline 17-AG Equilibrium Solubility” value ([1]; SIF pH 6.8, 1.0% PVP, 37° C.) is reported as 6.5 µg/mL. The “Crystalline 17-AG Equilibrium Solubility” value ([1]; SIF pH 6.8, 2.5% PVP, 37° C.) was 8.7 µg/mL, the “increase of equilibrium solubility of crystalline 17-AG” value ([1]; SIF pH 6.8, 5% PVP vs 0% PVP) was about 3 fold and the “Crystalline 17-AG Equilibrium Solubility” value ([1]; SIF pH 6.8, 5.0% PVP, 37° C.) was 11.2 µg/mL. For the same compound, the “exposure / oral bioavailability (in words)” value ([4]; single oral capsule) was “very low oral bioavailability” and the “Plasma levels of 17-AG following dosing” value ([4]; uncoated HPMC capsule) was “below quantifiable limits”.
For `CO[C@H]1/C=C\C=C(/C)C(=O)NC2=CC(=O)C(NCCF)=C(C[C@@H](C)C[C@H](OC)[C@H](O)[C@@H](C)/C=C(\C)[C@@H]1OC(N)=O)C2=O` [17-fluoroethyl-AG, 17-(fluoroethyl)aminogeldanamycin], the solubility [1, 8] was 40 µg/mL (≈ 67.6 µM), the “Supersaturated concentration of analog/polymer dispersions in SIF at 37° C. (t = 5 min)” value [2, 9] was 0.234 mg/ml and the “Fold increase relative to equilibrium solubility” value [2, 10] was 5 x.
For `CO[C@H]1/C=C\C=C(/C)C(=O)NC2=CC(=O)C(N3CCC3)=C(C[C@@H](C)C[C@H](OC)[C@H](O)[C@@H](C)/C=C(\C)[C@@H]1OC(N)=O)C2=O` [17-azetidinyl-G, 17-azetidinylgeldanamycin], the solubility [1, 8] was 140 µg/mL (≈ 239 µM), the “Supersaturated concentration of analog/polymer dispersions in SIF at 37° C. (t = 5 min)” value [2, 9] was 0.167 mg/ml and the “Fold increase relative to equilibrium solubility” value [2, 10] was 0 x.
For `CO[C@H]1/C=C\C=C(/C)C(=O)NC2=CC(=O)C(N)=C(C[C@@H](C)C[C@H](OC)[C@H](O)[C@@H](C)/C=C(\C)[C@@H]1OC(N)=O)C2=O` [17-AG, 17-amino-geldanamycin], the solubility ([1]; simulated intestinal fluid (SIF), pH 6.8, fassgf or other biorelevant, thermodynamic from solid) was 4 µg/mL (≈ 7.33 µM), the solubility thermodynamic ([1]; simulated intestinal fluid (SIF), pH 6.8, fassgf or other biorelevant, thermodynamic from solid, SIF, 37° C., read-out: Equilibrium solubility of 17-AG in SIF @ 37° C.) was 4 µg/mL (≈ 7.33 µM) and the “maximum reduction in tumor volume as compared to vehicle treated animals” value [5] was 62%. The “Supersaturated concentration of analog/polymer dispersions in SIF at 37° C. (t = 5 min)” value [2, 9] was 0.712 mg/ml, the “Fold increase relative to equilibrium solubility” value [2, 10] was 200 x and the “time at which 17-AG starts to precipitate out” value ([6]; 1.0 mg/ml solution in 5% PVP) was 120 min. For the same compound, the “17-AG Supersaturated Concentration” value ([6]; SIF pH 6.8, 0% PVP) was 0.5 mg/mL, the “17-AG Supersaturated Concentration” value ([6]; SIF pH 6.8, 0.5% PVP) was 0.6 mg/mL and the “17-AG Supersaturated Concentration” value ([6]; SIF pH 6.8, 1.0% PVP) was 0.7 mg/mL. For the same compound, the “increase of degree of supersaturation of 17-AG” value ([6]; SIF pH 6.8, 5% PVP vs 0% PVP) was about 2 fold, the “17-AG Supersaturated Concentration” value ([6]; SIF pH 6.8, 5.0% PVP) was 0.9 mg/mL and the “time at which 17-AG starts to precipitate and come out of solution” value ([6]; SIF without PVP) was “approximately 120 minutes”. For the same compound, the “reduction in tumor volume as compared to vehicle treated animals” value ([7]; 75 mg/kg 17-AG in 20% PGHS) was about 35% and the “reduction in tumor volume as compared to vehicle treated animals” value ([7]; 100 mg/kg 17-AG in 20% PGHS) was about 70%.
In the case of `COC1CC(C)CC2=C(N)C(=O)C=C(NC(=O)C(C)=CC=CC(OC)C(OC(N)=O)C(C)=CC(C)C1=O)C2=O` (stereo not drawn) [11-oxo-17-AG, 11-oxo-17-aminogeldanamycin], the “Eq. Solubility of active” value ([1]; pH 6.8) is reported as 330 µg/mL, the “Supersaturated concentration of analog/polymer dispersions in SIF at 37° C. (t = 5 min)” value [2, 9] is reported as 0.395 mg/ml and the “Fold increase relative to equilibrium solubility” value [2, 10] is reported as 0 x.
With `CO[C@H]1/C=C\C=C(/C)C(=O)NC2=CC(=O)C(N)=C(C[C@@H](C)C[C@H](OC)[C@H](O)[C@@H](C)/C=C(\C)[C@@H]1OC(N)=O)C2=O` [amorphous 17-AG, 17-amino-geldanamycin] the “exposure after oral dosing (in words)” value [3] was “significant exposure”.
